Test results reported in ChEMBL document CHEMBL1201862, “PubChem BioAssay data set” (2004).
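Growth conditions: 96-well plates. Treatment: test compound, 48 hours, 5 concentrations. Analysis: linear interpolation between bracketing concentrations; unreached endpoints set to highest concentration. Here, GI50 denotes the concentration required for 50% inhibition of growth.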 The source made the active and inactive calls. Rule as the data show it: active = GI50 up to about 1.1 µM and inactive = higher.

Assays:
Test in all cases: NCI-60 cell line screen, 48 h
A549 = system: A549
ACHN = system: ACHN
COLO 205 = system: COLO 205
DMS-114 = system: DMS-114
DMS-273 = system: DMS-273
EKVX = system: EKVX
HCC 2998 = system: HCC 2998
HCT-116 = system: HCT-116
HCT-15 = system: HCT-15
HOP-62 = system: HOP-62
HOP-92 = system: HOP-92
HT-29 = system: HT-29
IGROV-1 = system: IGROV-1
KM-20L2 = system: KM-20L2
KM12 = system: KM12
LOX IMVI = system: LOX IMVI
LXFL 529 = system: LXFL 529
M14 = system: M14
M19-MEL = system: M19-MEL
NCI-H23 = system: NCI-H23
NCI-H460 = system: NCI-H460
OVCAR-3 = system: OVCAR-3
OVCAR-4 = system: OVCAR-4
OVCAR-5 = system: OVCAR-5
OVCAR-8 = system: OVCAR-8
RPMI-8226 = system: RPMI-8226
RXF 393 = system: RXF 393
SF-268 = system: SF-268
SF-539 = system: SF-539
SK-MEL-28 = system: SK-MEL-28
SK-MEL-2 = system: SK-MEL-2
SK-MEL-5 = system: SK-MEL-5
SN12C = system: SN12C
SNB-19 = system: SNB-19
SNB-75 = system: SNB-75
SNB-78 = system: SNB-78
SR = system: SR
SW-620 = system: SW-620
TK-10 = system: TK-10
U-251 = system: U-251
UACC-257 = system: UACC-257
UACC-62 = system: UACC-62
UO-31 = system: UO-31
786-0 = system: 786-0
CAKI-1 = system: CAKI-1
CCRF-CEM = system: CCRF-CEM
DLD-1 = system: DLD-1
HL-60 = system: HL-60
K562 = system: K562
MOLT-4 = system: MOLT-4
Malme-3M = system: Malme-3M
NCI-H226 = system: NCI-H226
NCI-H522 = system: NCI-H522
SF-295 = system: SF-295
SK-OV-3 = system: SK-OV-3
A498 = system: A498

SMILES: Clc1ccc(-c2nnc(-c3nsc4ccccc34)o2)cc1
- GI50 (A549): 40.6 µM (inactive)
- GI50 (ACHN): 25.1 µM (inactive)
- GI50 (COLO 205): 71.8 µM (inactive)
- GI50 (DMS-114): 65.6 µM (inactive)
- GI50 (DMS-273): 26.6 µM (inactive)
- GI50 (EKVX): 14.2 µM (inactive)
- GI50 (HCC 2998): 24.9 µM (inactive)
- GI50 (HCT-116): 18.2 µM (inactive)
- GI50 (HCT-15): 47.8 µM
- GI50 (HOP-62): 13.8 µM (inactive)
- GI50 (HOP-92): 17.9 µM (inactive)
- GI50 (HT-29): 25.9 µM (inactive)
- GI50 (IGROV-1): 18.5 µM (inactive)
- GI50 (KM-20L2): 46.2 µM (inactive)
- GI50 (KM12): 51.5 µM (inactive)
- GI50 (LOX IMVI): 40.1 µM (inactive)
- GI50 (LXFL 529): 71 µM (inactive)
- GI50 (M14): 47.2 µM (inactive)
- GI50 (M19-MEL): > 100 µM (inactive)
- GI50 (NCI-H23): 17.5 µM (inactive)
- GI50 (NCI-H460): 23.3 µM (inactive)
- GI50 (OVCAR-3): 14 µM (inactive)
- GI50 (OVCAR-4): 14.2 µM (inactive)
- GI50 (OVCAR-5): 58.7 µM (inactive)
- GI50 (OVCAR-8): 25.1 µM (inactive)
- GI50 (RPMI-8226): 24.2 µM (inactive)
- GI50 (RXF 393): 38.3 µM (inactive)
- GI50 (SF-268): 18.5 µM (inactive)
- GI50 (SF-539): 20 µM (inactive)
- GI50 (SK-MEL-28): 33.3 µM (inactive)
- GI50 (SK-MEL-2): 28.5 µM (inactive)
- GI50 (SK-MEL-5): 31.3 µM (inactive)
- GI50 (SN12C): 36.6 µM (inactive)
- GI50 (SNB-19): 30.8 µM (inactive)
- GI50 (SNB-75): 8.17 µM (inactive)
- GI50 (SNB-78): 46.2 µM (inactive)
- GI50 (SR): > 10 µM (inactive)
- GI50 (SW-620): 50.5 µM (inactive)
- GI50 (TK-10): 25.2 µM (inactive)
- GI50 (U-251): 15.2 µM (inactive)
- GI50 (UACC-257): > 100 µM (inactive)
- GI50 (UACC-62): 54 µM (inactive)
- GI50 (UO-31): 18.8 µM (inactive)

SMILES: CC(C(=O)n1c2ccccc2c2ccccc21)N(c1ccccc1)c1ccccc1 (stereo unspecified)
- GI50 (786-0): 16.6 µM (inactive)
- GI50 (A549): 20.4 µM (inactive)
- GI50 (ACHN): 16.6 µM (inactive)
- GI50 (CAKI-1): 14.5 µM (inactive)
- GI50 (CCRF-CEM): 1.64 µM (inactive)
- GI50 (COLO 205): 17.4 µM (inactive)
- GI50 (DLD-1): 17.8 µM (inactive)
- GI50 (DMS-114): 17.4 µM (inactive)
- GI50 (DMS-273): 18.7 µM (inactive)
- GI50 (EKVX): 19.4 µM (inactive)
- GI50 (HCC 2998): 16.3 µM (inactive)
- GI50 (HCT-116): 18.7 µM (inactive)
- GI50 (HCT-15): 17 µM
- GI50 (HL-60): 4.46 µM (inactive)
- GI50 (HOP-62): 16.3 µM (inactive)
- GI50 (HT-29): 19.5 µM (inactive)
- GI50 (IGROV-1): 18.3 µM (inactive)
- GI50 (K562): 16.9 µM (inactive)
- GI50 (KM-20L2): 18.9 µM (inactive)
- GI50 (LOX IMVI): 16.7 µM (inactive)
- GI50 (LXFL 529): 14.4 µM (inactive)
- GI50 (M14): 16.7 µM (inactive)
- GI50 (M19-MEL): 18.5 µM (inactive)
- GI50 (MOLT-4): 11 µM (inactive)
- GI50 (Malme-3M): 15.1 µM (inactive)
- GI50 (NCI-H226): 23.7 µM (inactive)
- GI50 (NCI-H23): 18.9 µM (inactive)
- GI50 (NCI-H460): 34.6 µM (inactive)
- GI50 (NCI-H522): 2.75 µM (inactive)
- GI50 (OVCAR-3): 17.8 µM (inactive)
- GI50 (OVCAR-5): 18.4 µM (inactive)
- GI50 (OVCAR-8): 18.6 µM (inactive)
- GI50 (RPMI-8226): 16.3 µM (inactive)
- GI50 (RXF 393): 14.6 µM (inactive)
- GI50 (SF-268): 19.3 µM (inactive)
- GI50 (SF-295): 19.4 µM (inactive)
- GI50 (SF-539): 19.2 µM (inactive)
- GI50 (SK-MEL-28): 19.1 µM (inactive)
- GI50 (SK-MEL-2): 15.1 µM (inactive)
- GI50 (SK-MEL-5): 20.1 µM (inactive)
- GI50 (SK-OV-3): 18.7 µM (inactive)
- GI50 (SN12C): 19.9 µM (inactive)
- GI50 (SNB-19): 45.1 µM (inactive)
- GI50 (SNB-75): 20.2 µM (inactive)
- GI50 (SNB-78): 15.6 µM (inactive)
- GI50 (SR): 8.93 µM (inactive)
- GI50 (SW-620): 19.8 µM (inactive)
- GI50 (TK-10): 20 µM (inactive)
- GI50 (U-251): 17.8 µM (inactive)
- GI50 (UACC-257): 17.9 µM (inactive)
- GI50 (UACC-62): 17.6 µM (inactive)
- GI50 (UO-31): 20.6 µM (inactive)

SMILES: CC(=O)N/C(=C\c1ccc(Cc2nc3c([nH]2)C(=O)c2ccccc2C3=O)cc1)c1nc2c([nH]1)C(=O)c1ccccc1C2=O
- GI50 (786-0): > 100 µM (inactive)
- GI50 (A498): > 100 µM (inactive)
- GI50 (A549): > 100 µM (inactive)
- GI50 (ACHN): > 100 µM (inactive)
- GI50 (CAKI-1): > 100 µM (inactive)
- GI50 (CCRF-CEM): > 100 µM (inactive)
- GI50 (COLO 205): > 100 µM (inactive)
- GI50 (DLD-1): > 100 µM (inactive)
- GI50 (DMS-114): > 100 µM (inactive)
- GI50 (EKVX): > 100 µM (inactive)
- GI50 (HCC 2998): > 100 µM (inactive)
- GI50 (HCT-116): > 100 µM (inactive)
- GI50 (HL-60): > 100 µM (inactive)
- GI50 (HOP-62): > 100 µM (inactive)
- GI50 (HOP-92): > 100 µM (inactive)
- GI50 (HT-29): > 100 µM (inactive)
- GI50 (IGROV-1): > 100 µM (inactive)
- GI50 (K562): > 100 µM (inactive)
- GI50 (KM-20L2): > 100 µM (inactive)
- GI50 (KM12): > 100 µM (inactive)
- GI50 (LOX IMVI): > 100 µM (inactive)
- GI50 (LXFL 529): > 100 µM (inactive)
- GI50 (M14): > 100 µM (inactive)
- GI50 (M19-MEL): > 100 µM (inactive)
- GI50 (MOLT-4): > 100 µM (inactive)
- GI50 (Malme-3M): > 100 µM (inactive)
- GI50 (NCI-H226): > 100 µM (inactive)
- GI50 (NCI-H23): > 100 µM (inactive)
- GI50 (NCI-H460): > 100 µM (inactive)
- GI50 (NCI-H522): > 100 µM (inactive)
- GI50 (OVCAR-3): > 100 µM (inactive)
- GI50 (OVCAR-4): > 100 µM (inactive)
- GI50 (OVCAR-5): > 100 µM (inactive)
- GI50 (OVCAR-8): 43.5 µM (inactive)
- GI50 (RPMI-8226): > 100 µM (inactive)
- GI50 (RXF 393): > 100 µM (inactive)
- GI50 (SF-268): > 100 µM (inactive)
- GI50 (SF-295): > 100 µM (inactive)
- GI50 (SF-539): > 100 µM (inactive)
- GI50 (SK-MEL-28): > 100 µM (inactive)
- GI50 (SK-MEL-2): > 100 µM (inactive)
- GI50 (SK-MEL-5): > 100 µM (inactive)
- GI50 (SK-OV-3): > 100 µM (inactive)
- GI50 (SN12C): > 100 µM (inactive)
- GI50 (SNB-19): > 100 µM (inactive)
- GI50 (SNB-75): 86.3 µM (inactive)
- GI50 (SW-620): > 100 µM (inactive)
- GI50 (TK-10): 78.9 µM (inactive)
- GI50 (U-251): 78.5 µM (inactive)
- GI50 (UACC-257): > 100 µM (inactive)
- GI50 (UO-31): > 100 µM (inactive)
